Among the test systems are SF-268 CNS; CAKI-1 renal; SK-MEL-28 melanoma; SNB-75 CNS; NCI/ADR-RES ovarian; LOX IMVI melanoma; HS 578T breast; HCC-2998 colon; MCF7 breast; NCI-H460 lung.
Holding throughout (assay): NCI tumour cell line growth inhibition, 48 h

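In this assay, cells in 96-well plates receive the compound at five concentrations for 48 hours. Endpoints are linearly interpolated between the surrounding concentrations. TGI: total growth inhibition.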 A value given as a limit tells only on which side of the number the result lay.

As for `C/C1=C\C=C(\C(C)C)CC/C(C(=O)O)=C\CC/C(C)=C/CC1`, the TGI in the assay on SF-268 CNS is above 100 µM; in the assay on CAKI-1 renal, 88.3 µM; in the assay with SK-MEL-28 melanoma, 56.3 µM; in the assay on SNB-75 CNS, above 100 µM; with NCI/ADR-RES ovarian, 76.2 µM; in the assay with LOX IMVI melanoma, 49.5 µM. Moreover, the TGI in the assay on HS 578T breast is above 100 µM; in the assay with HCC-2998 colon it was 33.8 µM; in the assay with MCF7 breast, 34.8 µM; in the assay on NCI-H460 lung it was 34.5 µM.

`O=C1c2cn[nH]c2C(c2ccccc2)N1c1ccccc1` (stereo not given): the TGI in the assay on SF-268 CNS, in the assay with CAKI-1 renal, in the assay on SK-MEL-28 melanoma, with SNB-75 CNS, in the assay on NCI/ADR-RES ovarian and in the assay on LOX IMVI melanoma was above 10 µM throughout. Moreover, the TGI in the assay with HS 578T breast, in the assay on HCC-2998 colon, with MCF7 breast and in the assay on NCI-H460 lung was above 10 µM each time.

For the compound `O=c1cnn(CCOCP(=O)(O)O)c(=O)[nH]1`, the TGI with SF-268 CNS, with CAKI-1 renal, with SK-MEL-28 melanoma, with SNB-75 CNS, with NCI/ADR-RES ovarian and with LOX IMVI melanoma was above 100 µM throughout. Moreover, the TGI in the assay with HS 578T breast, in the assay with HCC-2998 colon, in the assay with MCF7 breast and in the assay with NCI-H460 lung was above 100 µM each time.

As for `Cc1ccc2c(c1)C(=O)C(C1OC(=O)c3ccccc31)C2` (stereo not given), the TGI with SF-268 CNS, in the assay on CAKI-1 renal, with SK-MEL-28 melanoma, in the assay on SNB-75 CNS, in the assay with NCI/ADR-RES ovarian and in the assay on LOX IMVI melanoma was above 100 µM in each case. For the same compound, the TGI in the assay on HS 578T breast, with HCC-2998 colon, with MCF7 breast and in the assay on NCI-H460 lung was above 100 µM in each case.

As to `COc1cc(C2c3cc4c(cc3OC(NCCO)C2C)OCO4)cc(OC)c1OC` (stereo not given), the TGI in the assay with SF-268 CNS is above 84.9 µM; in the assay on CAKI-1 renal it was above 54.3 µM; with SK-MEL-28 melanoma, above 100 µM; in the assay with SNB-75 CNS, above 71.7 µM; with NCI/ADR-RES ovarian, above 100 µM; in the assay with LOX IMVI melanoma, above 100 µM. Besides, the TGI was above 100 µM in the assay with HS 578T breast, above 23.2 µM with HCC-2998 colon, above 100 µM in the assay on MCF7 breast and above 100 µM in the assay with NCI-H460 lung.

On to `C[Si](C)(c1ccccc1)[C@H]1CCCC=C1CCNC1c2ccccc2CCc2ccccc21`, for which the TGI in the assay on SF-268 CNS, with CAKI-1 renal, in the assay on SK-MEL-28 melanoma, in the assay on SNB-75 CNS, in the assay on NCI/ADR-RES ovarian and in the assay with LOX IMVI melanoma was above 100 µM throughout. Besides, the TGI in the assay on HS 578T breast, in the assay with HCC-2998 colon, in the assay with MCF7 breast and in the assay with NCI-H460 lung was above 100 µM throughout.

`O=C(CCc1ccccc1)On1c(-c2ccccc2)nc2ccccc2c1=S`: the TGI in the assay on SF-268 CNS was above 100 µM; in the assay with CAKI-1 renal, above 100 µM; with SK-MEL-28 melanoma, above 100 µM; in the assay on SNB-75 CNS, above 100 µM; in the assay on NCI/ADR-RES ovarian, 79.1 µM; in the assay with LOX IMVI melanoma it was 83.6 µM. Further, the TGI in the assay with HS 578T breast is above 100 µM; in the assay with HCC-2998 colon, 27.8 µM; in the assay on MCF7 breast it was above 100 µM; in the assay with NCI-H460 lung, above 100 µM.

On to `CSc1c(C(=O)Nc2ccc(Cl)cc2)c(N)n(N)c(=O)c1C#N`, for which the TGI with SF-268 CNS, in the assay on CAKI-1 renal, in the assay on SK-MEL-28 melanoma, in the assay on SNB-75 CNS, in the assay with NCI/ADR-RES ovarian and in the assay with LOX IMVI melanoma was above 100 µM in each case. The TGI in the assay on HS 578T breast, in the assay on HCC-2998 colon, with MCF7 breast and in the assay on NCI-H460 lung was above 100 µM each time.

`O=C1Nc2ccccc2/C1=c1\[nH]c(=O)/c(=C\c2ccc(OCc3ccccc3)cn2)[nH]c1=O`: the TGI in the assay on SF-268 CNS was above 100 µM; in the assay with CAKI-1 renal, above 100 µM; in the assay with SK-MEL-28 melanoma, above 100 µM; with SNB-75 CNS, 14 µM; in the assay with NCI/ADR-RES ovarian, above 100 µM; in the assay with LOX IMVI melanoma, above 100 µM. Moreover, the TGI is 70.1 µM in the assay on HS 578T breast, above 100 µM in the assay on HCC-2998 colon, above 100 µM in the assay with MCF7 breast and above 100 µM in the assay with NCI-H460 lung.

Turning to `O=C(Nc1ccccc1)c1cc(S(=O)(=O)N2CCNNC2=O)c(S)cc1Cl`, the TGI with SF-268 CNS, with CAKI-1 renal, in the assay with SK-MEL-28 melanoma, in the assay on SNB-75 CNS, with NCI/ADR-RES ovarian and with LOX IMVI melanoma was above 100 µM in each case. In addition, the TGI in the assay on HS 578T breast, with HCC-2998 colon, in the assay on MCF7 breast and in the assay on NCI-H460 lung was above 100 µM throughout.

As to `CNc1ncc(-c2nnnn2-c2ccccc2)c(CN(C)C)n1`, the TGI in the assay with SF-268 CNS, with CAKI-1 renal, with SK-MEL-28 melanoma, with SNB-75 CNS, in the assay with NCI/ADR-RES ovarian and in the assay with LOX IMVI melanoma was above 100 µM in each case. For the same compound, the TGI in the assay on HS 578T breast, in the assay on HCC-2998 colon, in the assay with MCF7 breast and with NCI-H460 lung was above 100 µM in each case.

For the compound `C[N+]1(CCN[N+]2(C)CCCCC2)CCc2ccccc2C1` (stereo not given), the TGI in the assay with SF-268 CNS, with CAKI-1 renal, with SK-MEL-28 melanoma, in the assay with SNB-75 CNS, in the assay on NCI/ADR-RES ovarian and with LOX IMVI melanoma was above 100 µM each time. In addition, the TGI with HS 578T breast, in the assay with HCC-2998 colon, in the assay on MCF7 breast and in the assay on NCI-H460 lung was above 100 µM throughout.

Turning to `c1cnc(N2CCN(Cc3c[nH]c4ccccc34)CC2)nc1`, the TGI in the assay on SF-268 CNS, in the assay on CAKI-1 renal, with SK-MEL-28 melanoma, with SNB-75 CNS, in the assay on NCI/ADR-RES ovarian and in the assay on LOX IMVI melanoma was above 100 µM throughout. Further, the TGI with HS 578T breast is above 100 µM; with HCC-2998 colon, 38.9 µM; in the assay with MCF7 breast, 53.7 µM; with NCI-H460 lung, above 100 µM.

As to `COc1cc(N(Cc2ccc3oc(=O)c(-c4ccccc4)nc3c2)Cc2ccc3oc(=O)c(-c4ccccc4)nc3c2)cc(OC)c1OC`, the TGI in the assay with SF-268 CNS, in the assay with CAKI-1 renal, in the assay on SK-MEL-28 melanoma, with SNB-75 CNS, with NCI/ADR-RES ovarian and in the assay with LOX IMVI melanoma was above 10 µM throughout. In addition, the TGI in the assay on HS 578T breast, in the assay on HCC-2998 colon, with MCF7 breast and with NCI-H460 lung was above 10 µM throughout.

(Values after PubChem BioAssay (NCI).)
